{"source": "patent US20230031406A1", "about": "“COMPOUNDS AND COMPOSITIONS FOR TREATING CONDITIONS ASSOCIATED WITH NLRP ACTIVITY” (Novartis AG, priority 2018, published 2023)", "data": [{"system": "PMA-differentiated THP-1 cells", "assay": "IL-1β production in PMA-differentiated THP-1 cells stimulated with gramicidin (hTHP-1 assay containing 2% fetal bovine serum; Procedures 1 and 2)", "format": "cell-based, human", "details": "Homo sapiens, THP-1, Table B1; 2% fetal bovine serum; class symbols; read-out: Average IC50 of compounds in hTHP-1 assay: hTHP-1 IC50", "outline": "(§1)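 Human monocytic THP-1 cells, matured overnight with PMA at 20 ng/ml, are seeded in low-serum (2% FBS) RPMI. Test compounds, at final concentrations from 100 down to 0.0017 μM, precede gramicidin (5 μM, 2 h) by one hour. Released IL-1β is then determined by HTRF.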", "units": {"IC50": "µM"}, "values": [{"compound": "CC(C)(O)c1cc(F)c(S(N)(=O)=NC(=O)Nc2c3c(nc4c2CCC4)CCC3)s1", "note": "(stereo not drawn) [Compound 105, 3-fluoro-N′-((1,2,3,5,6,7-hexahydrodicyclopenta[b,e]pyridin-8-yl)carbamoyl)-5-(2-hydroxypropan-2-yl)thiophene-2-sulfonimidamide]", "IC50": "0.04 to 0.2"}, {"compound": "CC(C)(O)c1nc(CCO)c(S(N)(=O)=NC(=O)Nc2c3c(nc4c2CCC4)CCC3)s1", "note": "(single isomer, unassigned) [Compound 118a, (R) or (S)-N′-((1,2,3,5,6,7-hexahydrodicyclo-penta[b,e]pyridin-8-yl)carbamoyl)-4-(2-hydroxyethyl)-2-(2-hydroxypropan-2-yl)thiazole-5-sulfonimidamide]", "IC50": "0.2 to 1"}]}, {"system": "PMA-differentiated THP-1 cells", "assay": "IL-1β production in PMA-differentiated THP-1 cells stimulated with gramicidin (hTHP-1 assay containing 2% fetal bovine serum; Procedures 1 and 2)", "format": "cell-based, human", "details": "Homo sapiens, THP-1, Table B1; 2% fetal bovine serum; numeric bounds; read-out: Average IC50 of compounds in hTHP-1 assay: hTHP-1 IC50", "outline": "as §1", "units": {"IC50": "µM"}, "values": [{"compound": "CC(C)(O)c1ncc(S(N)(=O)=NC(=O)Nc2cc(-c3ccccc3)nc3c2CCC3)s1", "note": "(stereo not drawn) [Compound 142, 2-(2-hydroxypropan-2-yl)-N′-((2-phenyl-6,7-dihydro-5H-cyclopenta[b]pyridin-4-yl)carbamoyl)thiazole-5-sulfonimidamide]", "IC50": "> 30"}]}, {"system": "PMA-differentiated THP-1 cells", "assay": "IL-1β production in PMA-differentiated THP-1 cells stimulated with gramicidin (hTHP-1 assay containing 2% fetal bovine serum; Procedures 1 and 2)", "format": "cell-based, human", "details": "Homo sapiens, THP-1, Table B2; 2% fetal bovine serum; class symbols; read-out: hTHP-1 IC50", "outline": "as §1", "units": {"IC50": "µM"}, "values": [{"compound": "C[C@@H]1CCc2c1nc1c(c2NC(=O)N=S(N)(=O)c2ccn(-c3ccccc3)n2)CCC1", "note": "(stereo partly drawn) [Compound 646a]", "IC50": "1 to 5"}, {"compound": "Cc1c(C2(F)CC2)nc2c(c1NC(=O)N=S(N)(=O)c1cc(C(C)(C)O)cs1)CCC2", "note": "(stereo not drawn) [Compound 722]", "IC50": "1 to 5"}, {"compound": "CC1(C)CCc2c1nc1c(c2NC(=O)N=S(N)(=O)c2cnn3c2OCCC3)CCC1", "note": "(stereo not drawn) [Compound 304, N′-((3,3-dimethyl-1,2,3,5,6,7-hexahydrodicyclopenta[b,e]pyridin-8-yl)carbamoyl)-6,7-dihydro-5H-pyrazolo[5,1-b][1,3]oxazine-3-sulfonimidamide]", "IC50": "1 to 5"}, {"compound": "CC(C)(O)c1ccnc(S(N)(=O)=NC(=O)Nc2c3c(nc4c2CCC4(C)C)CCC3)c1", "note": "(stereo not drawn) [Compound 620, N′-((3,3-dimethyl-1,2,3,5,6,7-hexahydrodicyclopenta[b,e]pyridin-8-yl)carbamoyl)-4-(2-hydroxypropan-2-yl)pyridine-2-sulfonimidamide]", "IC50": "5 to 30"}, {"compound": "CC(C)(O)c1cc(C#N)cc(S(N)(=O)=NC(=O)Nc2c3c(nc4c2CCC4(C)C)CCC3)c1", "note": "(single isomer, unassigned) [Compound 674b, (R) or (S)-3-Cyano-N′-((3,3-dimethyl-1,2,3,5,6,7-hexahydrodicyclopenta [b,e]pyridin-8-yl)carbamoyl)-5-(2-hydroxypropan-2-yl)benzene-sulfonimidamide]", "IC50": "1 to 5"}, {"compound": "COCc1nc(C(C)(C)O)sc1S(N)(=O)=NC(=O)Nc1c2c(nc3c1CCC3)CCC2", "note": "(stereo not drawn) [Compound 689, N′-((1,2,3,5,6,7-hexahydrodicyclopenta[b,e]pyridin-8-yl)carbamoyl)-2-(2-hydroxypropan-2-yl)-4-(methoxymethyl)thiazole-5-sulfonimidamide]", "IC50": "1 to 5"}, {"compound": "CCc1ccsc1S(N)(=O)=NC(=O)Nc1c2c(nc3c1CC[C@H]3C)CCC2", "note": "(stereo partly drawn) [Compound 725a]", "IC50": "1 to 5"}, {"compound": "CC(C)(O)c1ccc(S(N)(=O)=NC(=O)Nc2c3c(nc4c2CCC4(C)C)CCC3)cn1", "note": "(stereo not drawn) [Compound 673, N′-((3,3-dimethyl-1,2,3,5,6,7-hexahydrodicyclopenta[b,e]pyridin-8-yl)carbamoyl)-6-(2-hydroxypropan-2-yl)pyridine-3-sulfonimidamide]", "IC50": "5 to 30"}]}, {"system": "PMA-differentiated THP-1 cells", "assay": "IL-1β production in PMA-differentiated THP-1 cells stimulated with gramicidin (hTHP-1 assay containing 2% fetal bovine serum; Procedures 1 and 2)", "format": "cell-based, human", "details": "Homo sapiens, THP-1, Table B2; 2% fetal bovine serum; numeric bounds; read-out: hTHP-1 IC50", "outline": "as §1", "units": {"IC50": "µM"}, "values": [{"compound": "Cc1c(C(=O)O)nc2c(c1NC(=O)N=S(N)(=O)c1cnc(C(C)(C)O)s1)CCC2", "note": "(stereo not drawn) [Compound 712]", "IC50": "> 30"}, {"compound": "CCC1CCc2c1nc1c(c2NC(=O)N=S(N)(=O)c2sc(C(C)(C)O)cc2F)CCC1", "note": "(single isomer, unassigned) [Compound 671a, (S, S) or (S, R) or (R, S) or (R, R)-N′-((3-ethyl-1,2,3,5,6,7-hexahydrodicyclopenta [b,e]pyridin-8-yl)carbamoyl)-3-fluoro-5-(2-hydroxypropan-2-yl) thiophene-2-sulfonimidamide]", "IC50": "> 30"}, {"compound": "CNCc1nc(C(C)(C)O)sc1S(N)(=O)=NC(=O)Nc1c2c(nc3c1CCC3(C)C)CCC2", "note": "(stereo not drawn) [Compound 665, N-((3,3-dimethyl-1,2,3,5,6,7-hexahydrodicyclopenta[b,e]pyridin-8-yl)carbamoyl)-2-(2-hydroxypropan-2-yl)-4-((methylamino)methyl)thiazole-5-sulfonimidamide]", "IC50": "> 30"}, {"compound": "CC1CCc2c1nc1c(c2NC(=O)N=S(N)(=O)c2cc(C(C)(C)O)n(-c3ccccc3)n2)CCC1", "note": "(single isomer, unassigned) [Compound 664a, (S) or (R)-5-(2-Hydroxypropan-2-yl)-N′-((3-methyl-1,2,3,5,6,7-hexahydrodicyclopenta [b,e]pyridin-8-yl)carbamoyl)-1-phenyl)-1-pyrazole-3-sulfonimidamide]", "IC50": "> 30"}]}, {"system": "PMA-differentiated THP-1 cells", "assay": "IL-1β production in PMA-differentiated THP-1 cells stimulated with gramicidin (hTHP-1 assay containing 2% fetal bovine serum; Procedures 1 and 2)", "format": "cell-based, human", "details": "Homo sapiens, THP-1, Table B3; hTHP-1 assay, 2% fetal bovine serum; class symbols; read-out: IC50", "outline": "as §1", "units": {"IC50": "µM"}, "values": [{"compound": "CCc1ccsc1S(N)(=O)=NC(=O)Nc1c2c(nc3c1CC[C@H]3C)CCC2", "note": "(stereo partly drawn) [Example 631, 3-Ethyl-N′-(((R)-3-methyl-1,2,3,5,6,7-hexahydrodicyclopenta[b,e]pyridin-8-yl)carbamoyl)thiophene-2-sulfonimidamide]", "IC50": "1 to 5"}, {"compound": "C[C@H](O)c1csc([S@@](N)(=O)=NC(=O)Nc2c3c(nc4c2CC[C@H]4C)CCC3)c1", "note": "(single isomer, unassigned) [Example 662, (S)-4-((S) or (R)-1-hydroxyethyl)-N′-(((R)-3-methyl-1,2,3,5,6,7-hexahydrodicyclopenta[b,e]pyridin-8-yl)carbamoyl)thiophene-2-sulfonimidamide]", "IC50": "5 to 30"}, {"compound": "C[C@H](O)c1csc([S@](N)(=O)=NC(=O)Nc2c3c(nc4c2CC[C@H]4C)CCC3)c1", "note": "(single isomer, unassigned) [Example 664, (R)-4-((S) or (R)-1-hydroxyethyl)-N′-(((R)-3-methyl-1,2,3,5,6,7-hexahydrodicyclopenta[b,e]pyridin-8-yl)carbamoyl) thiophene-2-sulfonimidamide]", "IC50": "0.04 to 0.2"}, {"compound": "Cc1c(C(F)(F)F)nc2c(c1NC(=O)N=S(N)(=O)c1ccn(C)n1)CCC2", "note": "(single isomer, unassigned) [Example 693, (R) or (S)-1-Methyl-N′-((3-methyl-2-(trifluoromethyl)-6,7-dihydro-5H-cyclopenta[b]pyridin-4-yl)carbamoyl)-1H-pyrazole-3-sulfonimidamide]", "IC50": "1 to 5"}, {"compound": "CC(C)c1nc2c(cc1NC(=O)N=S(N)(=O)c1cnc(C(C)(C)O)s1)CCC2", "note": "(single isomer, unassigned) [Example 701, (R) or (S)-2-(2-Hydroxypropan-2-yl)-N′-((2-isopropyl-6,7-dihydro-5H-cyclopenta[b]pyridin-3-yl)carbamoyl)thiazole-5-sulfonimidamide]", "IC50": "5 to 30"}]}, {"system": "PMA-differentiated THP-1 cells", "assay": "IL-1β production in PMA-differentiated THP-1 cells stimulated with gramicidin (hTHP-1 assay containing 2% fetal bovine serum; Procedures 1 and 2)", "format": "cell-based, human", "details": "Homo sapiens, THP-1, Table B4; 2% fetal bovine serum; class symbols; read-out: hTHP-1 IC50", "outline": "as §1", "units": {"IC50": "µM"}, "values": [{"compound": "CCn1cc(F)c(S(N)(=O)=NC(=O)Nc2c3c(nc(C(F)(F)F)c2-c2ccc(F)cc2)CCC3)n1", "note": "(stereo not drawn) [Example 733, 1-Ethyl-4-fluoro-N′-((3-(4-fluorophenyl)-2-(trifluoromethyl)-6,7-dihydro-5H-cyclopenta[b]pyridin-4-yl)carbamoyl)-1H-pyrazole-3-sulfonimidamide]", "IC50": "0.04 to 0.2"}]}, {"system": "PMA-differentiated THP-1 cells", "assay": "IL-1β production in PMA-differentiated THP-1 cells stimulated with gramicidin (hTHP-1 assay containing 2% fetal bovine serum; Procedures 1 and 2)", "format": "cell-based, human", "details": "Table B1; 2% fetal bovine serum; class symbols; read-out: Average IC50 of compounds in hTHP-1 assay: hTHP-1 IC50", "outline": "as §1", "units": {"IC50": "µM"}, "values": [{"compound": "CC(C)(O)c1cc(F)c(S(N)(=O)=NC(=O)Nc2c3c(nc4c2CCC42CC2)CCC3)s1", "note": "(single isomer, unassigned) [Compound 101a, (S) or (R)-3-fluoro-5-(2-hydroxypropan-2-yl)-N′-((1′,5′,6′,7′-tetrahydro-2′H-spiro[cyclopropane-1,3′-dicyclopenta[b,e]pyridin]-8′-yl)carbamoyl)thiophene-2-sulfonimidamide]", "IC50": "1 to 5"}, {"compound": "CC(C)c1ncc(F)c(C(C)C)c1NC(=O)N=S(N)(=O)c1sc(C(C)(C)O)cc1F", "note": "(single isomer, unassigned) [Compound 106a, (R) or (S)-3-fluoro-N′-((5-fluoro-2,4-diisopropylpyridin-3-yl)carbamoyl)-5-(2-hydroxypropan-2-yl)thiophene-2-sulfonimidamide]", "IC50": "0.04 to 0.2"}]}, {"system": "PMA-differentiated THP-1 cells", "assay": "IL-1β production in PMA-differentiated THP-1 cells stimulated with gramicidin (hTHP-1 assay containing 2% fetal bovine serum; Procedures 1 and 2)", "format": "cell-based, human", "details": "Table B2; 2% fetal bovine serum; class symbols; read-out: hTHP-1 IC50", "outline": "as §1", "units": {"IC50": "µM"}, "values": [{"compound": "CCC1CCc2c1nc1c(c2NC(=O)N=S(N)(=O)c2cnc(C(C)(C)O)s2)CCC1", "note": "(stereo not drawn) [Compound 662, N′-((3-ethyl-1,2,3,5,6,7-hexahydrodicyclopenta[b,e]pyridin-8-yl)carbamoyl)-2-(2-hydroxypropan-2-yl)thiazole-5-sulfonimidamide]", "IC50": "5 to 30"}, {"compound": "Cc1c(C(F)(F)F)nc2c(c1NC(=O)N=S(N)(=O)c1cc(C(C)(C)O)cs1)CCC2", "note": "(single isomer, unassigned) [Compound 624b, (R) or (S)-4-(2-Hydroxypropan-2-yl)-N′-((3-methyl-2-(trifluoromethyl)-6,7-dihydro-5H-cyclopenta[b]pyridin-4-yl)carbamoyl) thiophene-2-sulfonimidamide]", "IC50": "0.04 to 0.2"}, {"compound": "CCc1c(C2CC2)nc2c(c1NC(=O)N=S(N)(=O)c1cnc(C(C)(C)O)s1)CCC2", "note": "(single isomer, unassigned) [Compound 675b, (S) or (R)-N′-((2-cyclopropyl-3-ethyl-6,7-dihydro-5H-cyclopenta[b]pyridin-4-yl)carbamoyl)-2-(2-hydroxypropan-2-yl)thiazole-5-sulfonimidamide]", "IC50": "5 to 30"}]}, {"system": "PMA-differentiated THP-1 cells", "assay": "IL-1β production in PMA-differentiated THP-1 cells stimulated with gramicidin (hTHP-1 assay containing 2% fetal bovine serum; Procedures 1 and 2)", "format": "cell-based, human", "details": "Table B2; 2% fetal bovine serum; numeric bounds; read-out: hTHP-1 IC50", "outline": "as §1", "units": {"IC50": "µM"}, "values": [{"compound": "CC1CCc2c1nc1c(c2NC(=O)N=S(N)(=O)c2cnn(C(C)C)c2)CCC1", "note": "(single isomer, unassigned) [Compound 171d, (S, S) and (S, R) or (R, S) and (R, R)-1-Isopropyl-N′-((3-methyl-1,2,3,5,6,7-hexahydrodicyclopenta [b,e]pyridin-8-yl)carbamoyl)-1H-pyrazole-4-sulfonimidamide]", "IC50": "> 30"}]}]}
